Reference: the supplement of paper PMC10627819

Columns and labels:
B. subtilis 168 [1] = assay: fitness (endpoint OD595 vs no drug) (fraction); higher = more growth
Outline: (§1)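 Background-subtracted growth curves were the basis for fitness, taken as the optical density at entry into stationary phase over the robust mean of no-drug control wells. A cap of 1 was applied. The curves came from OD595 readings every 30 min for 14 h at 37 °C, in 384-well plates seeded at OD595 0.01 with 30 µl, or 55 µl for S. pneumoniae.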

S. pneumoniae D39V [2] = assay: as above
Outline: as §1

S. aureus DSM 20231 [3] = assay: as above
Outline: as §1

S. aureus Newman [4] = assay: as above
Outline: as §1

B. subtilis 168 [5] = assay: Bliss interaction score (quartile over a dose matrix) (fitness difference); higher = more antagonism (negative = synergy)
Outline: (§2)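 Fitness was defined as normalised growth: OD595 at the start of stationary phase divided by the plate's robust no-drug mean and capped at 1. Single-drug fitness was inferred from combination measurements. The Bliss score is observed fitness minus the product of the single-drug values, summarised by quartiles across technical, biological and donor/recipient replicates.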

S. pneumoniae D39V [6] = assay: as above
Outline: as §2

S. aureus DSM 20231 [7] = assay: as above
Outline: as §2

S. aureus Newman [8] = assay: as above
Outline: as §2
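For Bliss interaction score (quartile over a dose matrix) in this document: first quartile when negative (synergy) and third quartile when positive (antagonism).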

COc1cccc2c1C(=O)c1c(O)c3c(c(O)c1C2=O)C[C@@](O)(C(=O)CO)C[C@@H]3O[C@H]1C[C@H](N)[C@H](O)[C@H](C)O1 [Doxorubicin] + COc1c(N2C[C@@H]3CCCN[C@@H]3C2)c(F)cc2c(=O)c(C(=O)O)cn(C3CC3)c12 [Moxifloxacin]
fitness
Conditions	first compound 0.25 µg/mL	first compound 0.5 µg/mL	first compound 0.625 µg/mL	first compound 1 µg/mL	first compound 1.25 µg/mL	first compound 2.5 µg/mL
B. subtilis 168 [1], partner 0.0312 µg/mL	–	–	0.0436	–	0.0321	0.0239
B. subtilis 168 [1], partner 0.0625 µg/mL	–	–	0.0396	–	0.0329	0.0327
B. subtilis 168 [1], partner 0.125 µg/mL	–	–	0.0249	–	0.0462	0.026
B. subtilis 168 [1], partner 2 µg/mL	–	–	0.0338	–	0.0341	0.0223
B. subtilis 168 [1], partner 4 µg/mL	–	–	0.0299	–	0.0351	0.0369
B. subtilis 168 [1], partner 8 µg/mL	–	–	0.0347	–	0.0318	0.0314
S. aureus DSM 20231 [3], partner 0.0075 µg/mL	–	–	0.751	–	0.78	0.735
S. aureus DSM 20231 [3], partner 0.015 µg/mL	–	–	0.759	–	0.764	0.706
S. aureus DSM 20231 [3], partner 0.03 µg/mL	–	–	0.623	–	0.631	0.618
S. aureus Newman [4], partner 0.0075 µg/mL	–	–	0.756	–	0.722	0.659
S. aureus Newman [4], partner 0.015 µg/mL	–	–	0.66	–	0.667	0.611
S. pneumoniae D39V [2], partner 0.005 µg/mL	0.916	0.919	–	0.812	–	–
S. pneumoniae D39V [2], partner 0.01 µg/mL	0.955	0.911	–	0.857	–	–
S. pneumoniae D39V [2], partner 0.02 µg/mL	0.894	0.822	–	0.779	–	–
S. pneumoniae D39V [2], partner 0.0312 µg/mL	0.0684	0.0433	–	0.0394	–	–
S. pneumoniae D39V [2], partner 0.0625 µg/mL	0.0549	0.0614	–	0.0753	–	–
S. pneumoniae D39V [2], partner 0.125 µg/mL	0.0583	0.0523	–	0.0416	–	–

fitness, S. aureus DSM 20231 [3], one replicate
Conditions	first compound 0.625 µg/mL	first compound 1.25 µg/mL	first compound 2.5 µg/mL
partner 0.06 µg/mL	0.664	0.655	0.638
partner 0.12 µg/mL	0.575	0.531	0.537

Conditions	Bliss interaction score
B. subtilis 168 [5]	-0.0247
S. aureus DSM 20231 [7]	0.0448
S. aureus Newman [8]	0.177
S. pneumoniae D39V [6]	-0.0668

COc1cccc2c1C(=O)c1c(O)c3c(c(O)c1C2=O)C[C@@](O)(C(=O)CO)C[C@@H]3O[C@H]1C[C@H](N)[C@H](O)[C@H](C)O1 [Doxorubicin] + COc1ccc(C[C@H](N)C(=O)N[C@H]2[C@@H](O)[C@H](n3cnc4c(N(C)C)ncnc43)O[C@@H]2CO)cc1 [Puromycin]
fitness
Conditions	first compound 0.25 µg/mL	first compound 0.5 µg/mL	first compound 0.625 µg/mL	first compound 1 µg/mL	first compound 1.25 µg/mL	first compound 2.5 µg/mL
B. subtilis 168 [1], partner 0.39 µg/mL	–	–	0.918	–	0.879	0.558
B. subtilis 168 [1], partner 0.78 µg/mL	–	–	0.987	–	0.925	0.45
B. subtilis 168 [1], partner 1.56 µg/mL	–	–	0.925	–	0.89	0.336
S. aureus DSM 20231 [3], partner 0.39 µg/mL	–	–	0.912	–	0.869	0.803
S. aureus DSM 20231 [3], partner 0.78 µg/mL	–	–	0.889	–	0.954	0.783
S. aureus DSM 20231 [3], partner 1.56 µg/mL	–	–	0.874	–	0.858	0.733
S. aureus Newman [4], partner 0.39 µg/mL	–	–	0.84	–	0.763	0.699
S. aureus Newman [4], partner 0.78 µg/mL	–	–	0.801	–	0.767	0.68
S. aureus Newman [4], partner 1.56 µg/mL	–	–	0.84	–	0.725	0.678
S. pneumoniae D39V [2], partner 1 µg/mL	0.998	≥ 1	–	0.882	–	–
S. pneumoniae D39V [2], partner 2 µg/mL	0.926	0.914	–	0.874	–	–
S. pneumoniae D39V [2], partner 4 µg/mL	0.54	0.567	–	0.399	–	–

fitness, S. aureus DSM 20231 [3], one replicate
Conditions	first compound 0.625 µg/mL	first compound 1.25 µg/mL	first compound 2.5 µg/mL
partner 3.12 µg/mL	0.91	0.821	0.776
partner 6.24 µg/mL	0.801	0.679	0.59

Conditions	Bliss interaction score
B. subtilis 168 [5]	-0.059
S. aureus DSM 20231 [7]	-0.0672
S. aureus Newman [8]	-0.0786
S. pneumoniae D39V [6]	0.0661

COc1cccc2c1C(=O)c1c(O)c3c(c(O)c1C2=O)C[C@@](O)(C(=O)CO)C[C@@H]3O[C@H]1C[C@H](N)[C@H](O)[C@H](C)O1 [Doxorubicin] + C[C@@H]1O[C@@H]1P(=O)(O)O [Fosfomycin]
Conditions	fitness
B. subtilis 168 [1], first compound 0.625 µg/mL, partner 1.562 µg/mL	0.7
B. subtilis 168 [1], first compound 0.625 µg/mL, partner 3.124 µg/mL	0.605
B. subtilis 168 [1], first compound 0.625 µg/mL, partner 6.248 µg/mL	0.412
B. subtilis 168 [1], first compound 1.25 µg/mL, partner 1.562 µg/mL	0.655
B. subtilis 168 [1], first compound 1.25 µg/mL, partner 3.124 µg/mL	0.518
B. subtilis 168 [1], first compound 1.25 µg/mL, partner 6.248 µg/mL	0.302
B. subtilis 168 [1], first compound 2.5 µg/mL, partner 1.562 µg/mL	0.369
B. subtilis 168 [1], first compound 2.5 µg/mL, partner 6.248 µg/mL	0.0432
S. aureus DSM 20231 [3], first compound 0.625 µg/mL, partner 0.781 µg/mL	0.685
S. aureus DSM 20231 [3], first compound 0.625 µg/mL, partner 1.562 µg/mL	0.587
S. aureus DSM 20231 [3], first compound 0.625 µg/mL, partner 3.124 µg/mL	0.5
S. aureus DSM 20231 [3], first compound 1.25 µg/mL, partner 0.781 µg/mL	0.681
S. aureus DSM 20231 [3], first compound 1.25 µg/mL, partner 1.562 µg/mL	0.603
S. aureus DSM 20231 [3], first compound 1.25 µg/mL, partner 3.124 µg/mL	0.493
S. aureus DSM 20231 [3], first compound 2.5 µg/mL, partner 0.781 µg/mL	0.637
S. aureus DSM 20231 [3], first compound 2.5 µg/mL, partner 1.562 µg/mL	0.506
S. aureus DSM 20231 [3], first compound 2.5 µg/mL, partner 3.124 µg/mL	0.449
S. aureus Newman [4], first compound 0.625 µg/mL, partner 0.781 µg/mL	0.615
S. aureus Newman [4], first compound 0.625 µg/mL, partner 1.562 µg/mL	0.547
S. aureus Newman [4], first compound 0.625 µg/mL, partner 3.124 µg/mL	0.212
S. aureus Newman [4], first compound 1.25 µg/mL, partner 0.781 µg/mL	0.618
S. aureus Newman [4], first compound 1.25 µg/mL, partner 1.562 µg/mL	0.535
S. aureus Newman [4], first compound 1.25 µg/mL, partner 3.124 µg/mL	0.138
S. aureus Newman [4], first compound 2.5 µg/mL, partner 0.781 µg/mL	0.595
S. aureus Newman [4], first compound 2.5 µg/mL, partner 1.562 µg/mL	0.443
S. aureus Newman [4], first compound 2.5 µg/mL, partner 3.124 µg/mL	0.0485
S. pneumoniae D39V [2], first compound 0.25 µg/mL, partner 1.25 µg/mL	0.881
S. pneumoniae D39V [2], first compound 0.25 µg/mL, partner 2.5 µg/mL	0.852
S. pneumoniae D39V [2], first compound 0.25 µg/mL, partner 5 µg/mL	0.635
S. pneumoniae D39V [2], first compound 0.5 µg/mL, partner 1.25 µg/mL	0.938
S. pneumoniae D39V [2], first compound 0.5 µg/mL, partner 2.5 µg/mL	0.859
S. pneumoniae D39V [2], first compound 0.5 µg/mL, partner 5 µg/mL	0.646
S. pneumoniae D39V [2], first compound 1 µg/mL, partner 1.25 µg/mL	0.861
S. pneumoniae D39V [2], first compound 1 µg/mL, partner 2.5 µg/mL	0.823
S. pneumoniae D39V [2], first compound 1 µg/mL, partner 5 µg/mL	0.669

Conditions	Bliss interaction score
B. subtilis 168 [5]	-0.142
S. aureus DSM 20231 [7]	0.0338
S. aureus Newman [8]	0.122
S. pneumoniae D39V [6]	-0.0488

COc1cccc2c1C(=O)c1c(O)c3c(c(O)c1C2=O)C[C@@](O)(C(=O)CO)C[C@@H]3O[C@H]1C[C@H](N)[C@H](O)[C@H](C)O1 [Doxorubicin] + C[n+]1ccc(-c2cc[n+](C)cc2)cc1 [Paraquat]
fitness
Conditions	first compound 0.25 µg/mL	first compound 0.5 µg/mL	first compound 0.625 µg/mL	first compound 1 µg/mL	first compound 1.25 µg/mL	first compound 2.5 µg/mL
B. subtilis 168 [1], partner 1.25 µg/mL	–	–	≥ 1	–	0.892	0.686
B. subtilis 168 [1], partner 2.5 µg/mL	–	–	0.924	–	0.861	0.656
B. subtilis 168 [1], partner 5 µg/mL	–	–	0.862	–	0.876	0.595
S. aureus DSM 20231 [3], partner 1.25 µg/mL	–	–	0.858	–	0.882	0.782
S. aureus DSM 20231 [3], partner 2.5 µg/mL	–	–	0.828	–	0.835	0.761
S. aureus DSM 20231 [3], partner 5 µg/mL	–	–	0.823	–	0.8	0.744
S. aureus Newman [4], partner 1.25 µg/mL	–	–	0.712	–	0.742	0.732
S. aureus Newman [4], partner 2.5 µg/mL	–	–	0.715	–	0.792	0.759
S. aureus Newman [4], partner 5 µg/mL	–	–	0.744	–	0.743	0.761
S. pneumoniae D39V [2], partner 1.5 µg/mL	0.98	0.992	–	0.9	–	–
S. pneumoniae D39V [2], partner 3 µg/mL	0.936	0.979	–	0.886	–	–
S. pneumoniae D39V [2], partner 6 µg/mL	0.916	0.946	–	0.872	–	–

Conditions	Bliss interaction score
B. subtilis 168 [5]	0.105
S. aureus DSM 20231 [7]	-0.0686
S. aureus Newman [8]	-0.052
S. pneumoniae D39V [6]	0.0503
